Test results published in the supplement of paper PMC7017272.
± gives the standard deviation of the averaged measurements.

What was measured:
Settings in all cases: treatment time: 3 days
UT-SCC-28 [1] = test: relative IC50 (midpoint of the fitted curve; maximal inhibition may be below 50%); higher = less potent
In short: (§1)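 Viability of HPV-negative HNSCC cell lines was measured by CellTiter-Glo 2.0 luminescence. Cells were seeded at 500 cells/well in 384-well plates on plastic, on Matrigel- or Myogel-coated wells (500 µg/mL), or embedded in Matrigel or Myogel plus rat collagen I, then given compounds at five 10-fold concentrations for 3 days, with signals normalised to vehicle (0.1% DMSO) and cell-killing control wells. Fitting of percent-inhibition dose–response curves in the FIMM pipeline yielded IC50, maximal inhibition and drug sensitivity score.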

UT-SCC-81 [2] = test: as above
In short: as §1

UT-SCC-24B [3] = test: as above
In short: as §1

UT-SCC-40 [4] = test: as above
In short: as §1

UT-SCC-28 [5] = test: maximal % inhibition of viability relative to DMSO; higher = stronger effect
Procedure: (§2)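 HNSCC cell lines (500 cells/well, 384-well) were cultured on plastic, on top of (2D) or embedded (3D) in Matrigel or human leiomyoma matrix Myogel (500 ug/mL; Myogel 3D mixed with rat collagen I). Cells were treated for 3 days with 5 ten-fold concentrations of each drug, and viability was read by CellTiter-Glo. Viability was normalised to DMSO and benzethonium chloride controls and fitted with the FIMM DSRT pipeline to give IC50 (nM), maximal % inhibition and DSS. Suffixes _1/_2/_3 are replicates. Only inhibition-mode (IC50) fits are kept.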

UT-SCC-81 [6] = test: as above
Procedure: as §2

UT-SCC-44 = test: as above
Procedure: as §2

UT-SCC-42A = test: as above
Procedure: as §2

UT-SCC-14 = test: as above
Procedure: as §2

UT-SCC-24B [7] = test: as above
Procedure: as §2

UT-SCC-42B = test: as above
Procedure: as §2

UT-SCC-40 [8] = test: as above
Procedure: as §2

UT-SCC-73 = test: as above
Procedure: as §2

UT-SCC-8 = test: as above
Procedure: as §2

UT-SCC-106A = test: as above
Procedure: as §2

UT-SCC-24A = test: drug sensitivity score (DSS); higher = more sensitive
Procedure: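 HNSCC cell lines (500 cells/well, 384-well) were cultured on plastic, on top of (2D) or embedded (3D) in Matrigel or human leiomyoma matrix Myogel (500 ug/mL; Myogel 3D mixed with rat collagen I). Cells were treated for 3 days with 5 ten-fold concentrations of each drug, and viability was read by CellTiter-Glo. Suffixes _1/_2/_3 on drug names are replicates.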

[9] = culture condition: embedded in Matrigel
[10] = culture condition: embedded in Myogel + collagen I
[11] = culture condition: on top of Matrigel
[12] = culture condition: plastic 2D (no matrix)
[13] = culture condition: on top of Myogel

## C=CC(=O)Nc1cc2c(Nc3ccc(F)c(Cl)c3)ncnc2cc1OCCCN1CCOCC1 [Canertinib]
UT-SCC-28 [1]; [9]
  relative IC50: 3420 nM
UT-SCC-28 [1]; [10]
  relative IC50: 1510 nM
UT-SCC-28 [1]; [11]
  relative IC50: 1630 nM
UT-SCC-28 [1]; [12]
  relative IC50: 1760 nM
UT-SCC-81 [2]; [9]
  relative IC50: 36.5 nM
UT-SCC-81 [2]; [10]
  relative IC50: 1510 nM
UT-SCC-81 [2]; [11]
  relative IC50: 52 nM
UT-SCC-81 [2]; [13]
  relative IC50: 1590 nM
UT-SCC-81 [2]; [12]
  relative IC50: 69.6 nM
UT-SCC-24B [3]; [9]
  relative IC50: 253 nM
UT-SCC-24B [3]; [10]
  relative IC50: 1530 nM
UT-SCC-24B [3]; [11]
  relative IC50: 234 nM
UT-SCC-24B [3]; [13]
  relative IC50: 1580 nM
UT-SCC-24B [3]; [12]
  relative IC50: 63.1 nM
UT-SCC-40 [4]; [9]
  relative IC50: 48.9 nM
UT-SCC-40 [4]; [10]
  relative IC50: 1310 nM
UT-SCC-40 [4]; [11]
  relative IC50: 65.8 nM
UT-SCC-40 [4]; [13]
  relative IC50: 1270 nM
UT-SCC-40 [4]; [12]
  relative IC50: 211 nM
UT-SCC-28 [5]; [9]
  maximal % inhibition of viability: 82.3 ± 4.4%
UT-SCC-28 [5]; [10]
  maximal % inhibition of viability: 90.8 ± 3.4%
UT-SCC-28 [5]; [11]
  maximal % inhibition of viability: 86.1 ± 2.4%
UT-SCC-28 [5]; [12]
  maximal % inhibition of viability: 80.9 ± 5.2%
UT-SCC-81 [6]; [9]
  maximal % inhibition of viability: 99.63 ± 0.4%
UT-SCC-81 [6]; [10]
  maximal % inhibition of viability: 99.77 ± 0.32%
UT-SCC-81 [6]; [11]
  maximal % inhibition of viability: 99.27 ± 0.64%
UT-SCC-81 [6]; [13]
  maximal % inhibition of viability: 99.13 ± 0.75%
UT-SCC-81 [6]; [12]
  maximal % inhibition of viability: 99.77 ± 0.4%
UT-SCC-44; [9]
  maximal % inhibition of viability: 77.5 ± 7%
UT-SCC-44; [10]
  maximal % inhibition of viability: 92.5 ± 2.4%
UT-SCC-44; [11]
  maximal % inhibition of viability: 92 ± 3.6%
UT-SCC-44; [13]
  maximal % inhibition of viability: 95 ± 3.5%
UT-SCC-44; [12]
  maximal % inhibition of viability: 94.1 ± 3.5%
UT-SCC-42A; [9]
  maximal % inhibition of viability: 96.9 ± 4.2%
UT-SCC-42A; [10]
  maximal % inhibition of viability: 97.4 ± 3.2%
UT-SCC-42A; [11]
  maximal % inhibition of viability: 98.3 ± 1.7%
UT-SCC-42A; [13]
  maximal % inhibition of viability: 98 ± 1.9%
UT-SCC-42A; [12]
  maximal % inhibition of viability: 99.23 ± 0.8%
UT-SCC-14; [9]
  maximal % inhibition of viability: 99.23 ± 0.75%
UT-SCC-14; [10]
  maximal % inhibition of viability: 98.8 ± 1.1%
UT-SCC-14; [11]
  maximal % inhibition of viability: 99.7 ± 0.27%
UT-SCC-14; [13]
  maximal % inhibition of viability: 98.7 ± 1.7%
UT-SCC-14; [12]
  maximal % inhibition of viability: 98.5 ± 1.4%
UT-SCC-24B [7]; [9]
  maximal % inhibition of viability: 99.67 ± 0.31%
UT-SCC-24B [7]; [10]
  maximal % inhibition of viability: 99.33 ± 0.61%
UT-SCC-24B [7]; [11]
  maximal % inhibition of viability: 99.83 ± 0.29%
UT-SCC-24B [7]; [13]
  maximal % inhibition of viability: 99.7 ± 0.52%
UT-SCC-24B [7]; [12]
  maximal % inhibition of viability: 99.47 ± 0.46%
UT-SCC-42B; [9]
  maximal % inhibition of viability: 99.5 ± 0.36%
UT-SCC-42B; [11]
  maximal % inhibition of viability: 99.87 ± 0.23%
UT-SCC-42B; [13]
  maximal % inhibition of viability: 99.77 ± 0.4%
UT-SCC-42B; [12]
  maximal % inhibition of viability: 99.17 ± 0.74%
UT-SCC-40 [8]; [9]
  maximal % inhibition of viability: 99.5 ± 0.46%
UT-SCC-40 [8]; [10]
  maximal % inhibition of viability: 99.37 ± 0.55%
UT-SCC-40 [8]; [11]
  maximal % inhibition of viability: 99.73 ± 0.38%
UT-SCC-40 [8]; [13]
  maximal % inhibition of viability: 99.63 ± 0.55%
UT-SCC-40 [8]; [12]
  maximal % inhibition of viability: 99.67 ± 0.58%
UT-SCC-73; [9]
  maximal % inhibition of viability: 99.5 ± 0.46%
UT-SCC-73; [10]
  maximal % inhibition of viability: 99.57 ± 0.59%
UT-SCC-73; [11]
  maximal % inhibition of viability: 99.13 ± 0.78%
UT-SCC-73; [13]
  maximal % inhibition of viability: 98.9 ± 0.98%
UT-SCC-73; [12]
  maximal % inhibition of viability: 99.5 ± 0.7%
UT-SCC-8; [9]
  maximal % inhibition of viability: 99.83 ± 0.29%
UT-SCC-8; [10]
  maximal % inhibition of viability: 99 ± 1%
UT-SCC-8; [11]
  maximal % inhibition of viability: 99.967 ± 0.058%
UT-SCC-8; [13]
  maximal % inhibition of viability: 99.967 ± 0.058%
UT-SCC-8; [12]
  maximal % inhibition of viability: 99.37 ± 0.85%
UT-SCC-106A; [9]
  maximal % inhibition of viability: 95.6 ± 2%
UT-SCC-106A; [10]
  maximal % inhibition of viability: 95.1 ± 1.2%
UT-SCC-106A; [11]
  maximal % inhibition of viability: 97.3 ± 2.1%
UT-SCC-106A; [13]
  maximal % inhibition of viability: 97.6 ± 1%
UT-SCC-106A; [12]
  maximal % inhibition of viability: 98.83 ± 0.94%
UT-SCC-24A; [9]
  drug sensitivity score: 27.8 ± 2 DSS
UT-SCC-24A; [10]
  drug sensitivity score: 11 ± 3.6 DSS
UT-SCC-24A; [11]
  drug sensitivity score: 23.5 ± 0.87 DSS
UT-SCC-24A; [13]
  drug sensitivity score: 8.7 ± 0.2 DSS
UT-SCC-24A; [12]
  drug sensitivity score: 23.5 ± 1.5 DSS
